Values joined by “and” are separate entries in the source; they are usually repeats but may differ in a detail not shown here. Identical values can stand only once.
Assay: Hematological and hepatic parameters, 2-week repeated oral dosing
Format: in vivo
Conditions: rats
[1] = RK-701 10 mg/kg for two weeks, individual animals 1-5, 10 mg/kg
[2] = RK-701 30 mg/kg for two weeks, individual animals 1-5, 30 mg/kg
[3] = RK-701 100 mg/kg for two weeks, individual animals 1-5, 100 mg/kg

SMILES: Cc1c(C(=O)NC(CCC2CC2)C(=O)Nc2ccc(C#N)cc2)[nH]c2c1C(=O)CC(C)(C)C2 (stereo not drawn) [RK-701]
- ALB [1]: 3.3 g/dL and 3.6 g/dL and 3.5 g/dL and 3.9 g/dL
- ALP [1]: 498 IU/L and 658 IU/L and 651 IU/L and 305 IU/L and 323 IU/L
- ALT [1]: 35 IU/L and 24 IU/L and 23 IU/L and 29 IU/L and 31 IU/L
- AST [1]: 65 IU/L and 68 IU/L and 63 IU/L and 58 IU/L
- EOS [1]: 0.8 x 10^2 cells/μL and 0.5 x 10^2 cells/μL and 0.6 x 10^2 cells/μL
- HCT [1]: 43.6% and 43.5% and 41.3% and 46.1% and 43.9%
- HGB [1]: 15.1 g/dL and 14.9 g/dL and 14.2 g/dL and 16.2 g/dL and 15.2 g/dL
- LUC [1]: 0.5 x 10^2 cells/μL and 0.3 x 10^2 cells/μL and 0.2 x 10^2 cells/μL and 0.6 x 10^2 cells/μL
- Lymph [1]: 60.7 x 10^2 cells/μL and 48.8 x 10^2 cells/μL and 34.7 x 10^2 cells/μL and 52.6 x 10^2 cells/μL and 60.4 x 10^2 cells/μL
- MCH [1]: 20.6 pg and 20.7 pg and 19.3 pg and 20.9 pg and 20.5 pg
- MCHC [1]: 34.6 g/dL and 34.4 g/dL and 35.1 g/dL and 34.7 g/dL
- MCV [1]: 59.5 fL and 60.2 fL and 56.2 fL and 59.6 fL and 59.1 fL
- MONO [1]: 1 x 10^2 cells/μL and 0.9 x 10^2 cells/μL and 0.6 x 10^2 cells/μL and 1.2 x 10^2 cells/μL
- NEUT [1]: 8.2 x 10^2 cells/μL and 4.4 x 10^2 cells/μL and 6.1 x 10^2 cells/μL and 5.2 x 10^2 cells/μL and 8.1 x 10^2 cells/μL
- PL [1]: 141 mg/dL and 106 mg/dL and 124 mg/dL and 99 mg/dL and 133 mg/dL
- PLT [1]: 127.6 x 10^4 cells/μL and 123.4 x 10^4 cells/μL and 117.1 x 10^4 cells/μL and 123.6 x 10^4 cells/μL and 146.5 x 10^4 cells/μL
- RBC [1]: 732 x 10^4 cells/μL and 722 x 10^4 cells/μL and 735 x 10^4 cells/μL and 773 x 10^4 cells/μL and 743 x 10^4 cells/μL
- Retic [1]: 223.8 x 10^9 cells/L and 153 x 10^9 cells/L and 208.3 x 10^9 cells/L and 171.7 x 10^9 cells/L and 194.5 x 10^9 cells/L
- T-CHO [1]: 87 mg/dL and 57 mg/dL and 73 mg/dL and 64 mg/dL
- TG [1]: 26 mg/dL and 11 mg/dL and 19 mg/dL and 14 mg/dL and 48 mg/dL
- TP [1]: 5.8 g/dL and 6.1 g/dL and 5.9 g/dL and 6.4 g/dL
- WBC [1]: 71.3 x 10^2 cells/μL and 55 x 10^2 cells/μL and 42.1 x 10^2 cells/μL and 59.6 x 10^2 cells/μL and 70.9 x 10^2 cells/μL
- ALB [2]: 3.3 g/dL and 3.6 g/dL and 3.5 g/dL
- ALP [2]: 418 IU/L and 310 IU/L and 628 IU/L and 586 IU/L and 615 IU/L
- ALT [2]: 28 IU/L and 21 IU/L and 29 IU/L and 25 IU/L
- AST [2]: 71 IU/L and 66 IU/L and 59 IU/L and 54 IU/L and 70 IU/L
- EOS [2]: 0.4 x 10^2 cells/μL and 0.5 x 10^2 cells/μL and 0.7 x 10^2 cells/μL and 0.3 x 10^2 cells/μL
- HCT [2]: 41.9% and 44.7% and 43.2% and 41.2% and 41.8%
- HGB [2]: 13.9 g/dL and 15.2 g/dL and 14.7 g/dL and 14.2 g/dL and 14.4 g/dL
- LUC [2]: 0.5 x 10^2 cells/μL and 0.2 x 10^2 cells/μL and 0.6 x 10^2 cells/μL and 0.4 x 10^2 cells/μL
- Lymph [2]: 67.9 x 10^2 cells/μL and 38.8 x 10^2 cells/μL and 53.8 x 10^2 cells/μL and 52 x 10^2 cells/μL and 52.5 x 10^2 cells/μL
- MCH [2]: 18.8 pg and 19.5 pg and 21.3 pg and 20.8 pg
- MCHC [2]: 33.3 g/dL and 33.9 g/dL and 34.1 g/dL and 34.4 g/dL
- MCV [2]: 56.4 fL and 57.4 fL and 62.5 fL and 56.7 fL and 60.3 fL
- MONO [2]: 1 x 10^2 cells/μL and 0.8 x 10^2 cells/μL and 0.9 x 10^2 cells/μL
- NEUT [2]: 5.1 x 10^2 cells/μL and 8.7 x 10^2 cells/μL and 4.3 x 10^2 cells/μL and 6.5 x 10^2 cells/μL and 8.9 x 10^2 cells/μL
- PL [2]: 116 mg/dL and 127 mg/dL and 128 mg/dL and 100 mg/dL and 113 mg/dL
- PLT [2]: 120.9 x 10^4 cells/μL and 129.5 x 10^4 cells/μL and 130.8 x 10^4 cells/μL and 134.3 x 10^4 cells/μL and 95.6 x 10^4 cells/μL
- RBC [2]: 742 x 10^4 cells/μL and 779 x 10^4 cells/μL and 692 x 10^4 cells/μL and 726 x 10^4 cells/μL and 693 x 10^4 cells/μL
- Retic [2]: 276.8 x 10^9 cells/L and 221.1 x 10^9 cells/L and 186.9 x 10^9 cells/L and 199.2 x 10^9 cells/L and 253.8 x 10^9 cells/L
- T-CHO [2]: 63 mg/dL and 69 mg/dL and 62 mg/dL and 58 mg/dL and 68 mg/dL
- TG [2]: 16 mg/dL and 19 mg/dL and 25 mg/dL and 12 mg/dL and 11 mg/dL
- TP [2]: 5.7 g/dL and 6.1 g/dL and 6 g/dL and 5.8 g/dL
- WBC [2]: 74.9 x 10^2 cells/μL and 49.1 x 10^2 cells/μL and 60.2 x 10^2 cells/μL and 60.7 x 10^2 cells/μL and 63.2 x 10^2 cells/μL
- ALB [3]: 3.4 g/dL and 3.3 g/dL and 3.2 g/dL and 3.5 g/dL
- ALP [3]: 450 IU/L and 547 IU/L and 566 IU/L and 866 IU/L and 399 IU/L
- ALT [3]: 37 IU/L and 26 IU/L and 28 IU/L and 29 IU/L and 25 IU/L
- AST [3]: 63 IU/L and 59 IU/L and 68 IU/L and 70 IU/L and 58 IU/L
- EOS [3]: 0.3 x 10^2 cells/μL and 0.6 x 10^2 cells/μL and 0.8 x 10^2 cells/μL and 0.7 x 10^2 cells/μL
- HCT [3]: 43.3% and 44.1% and 41.3% and 42.5% and 43.5%
- HGB [3]: 14.8 g/dL and 15 g/dL and 14.4 g/dL and 14.6 g/dL
- LUC [3]: 0.4 x 10^2 cells/μL and 0.5 x 10^2 cells/μL and 0.3 x 10^2 cells/μL and 0.9 x 10^2 cells/μL
- Lymph [3]: 61.6 x 10^2 cells/μL and 55.7 x 10^2 cells/μL and 66.9 x 10^2 cells/μL and 49.9 x 10^2 cells/μL and 88.7 x 10^2 cells/μL
- MCH [3]: 20.2 pg and 20.4 pg and 20.6 pg and 20.1 pg
- MCHC [3]: 34.3 g/dL and 34 g/dL and 34.8 g/dL and 34.4 g/dL
- MCV [3]: 59 fL and 60.2 fL and 59.1 fL and 58.3 fL and 58.6 fL
- MONO [3]: 1.3 x 10^2 cells/μL and 0.7 x 10^2 cells/μL and 1.6 x 10^2 cells/μL and 1 x 10^2 cells/μL and 1.4 x 10^2 cells/μL
- NEUT [3]: 7.8 x 10^2 cells/μL and 2.7 x 10^2 cells/μL and 9.7 x 10^2 cells/μL and 9.5 x 10^2 cells/μL and 9.3 x 10^2 cells/μL
- PL [3]: 153 mg/dL and 118 mg/dL and 132 mg/dL and 110 mg/dL and 173 mg/dL
- PLT [3]: 110.2 x 10^4 cells/μL and 121.4 x 10^4 cells/μL and 96 x 10^4 cells/μL and 122.9 x 10^4 cells/μL and 114.3 x 10^4 cells/μL
- RBC [3]: 733 x 10^4 cells/μL and 700 x 10^4 cells/μL and 729 x 10^4 cells/μL and 744 x 10^4 cells/μL
- Retic [3]: 130.2 x 10^9 cells/L and 149.9 x 10^9 cells/L and 250.7 x 10^9 cells/L and 185.7 x 10^9 cells/L and 177.3 x 10^9 cells/L
- T-CHO [3]: 94 mg/dL and 67 mg/dL and 91 mg/dL and 72 mg/dL and 116 mg/dL
- TG [3]: 26 mg/dL and 19 mg/dL and 9 mg/dL and 8 mg/dL and 32 mg/dL
- TP [3]: 5.6 g/dL and 5.8 g/dL and 5.9 g/dL and 5.7 g/dL and 6.2 g/dL
- WBC [3]: 71.5 x 10^2 cells/μL and 60.2 x 10^2 cells/μL and 79.6 x 10^2 cells/μL and 61.2 x 10^2 cells/μL and 101.3 x 10^2 cells/μL
- effect on hematological and hepatic parameters (oral, up to 100 mg/kg, two weeks): no serious effect
- ALB (two weeks, 10 mg/kg): 3.6 ± 0.2 g/dL
- ALP (two weeks, 10 mg/kg): 487 ± 170 IU/L
- ALT (two weeks, 10 mg/kg): 28 ± 5 IU/L
- AST (two weeks, 10 mg/kg): 64 ± 4 IU/L
- EOS (two weeks, 10 mg/kg): 0.6 ± 0.1 x 102 cells/μL
- HCT (two weeks, 10 mg/kg): 43.7± 1.7%
- HGB (two weeks, 10 mg/kg): 15.1 ± 0.7 g/dL
- LUC (two weeks, 10 mg/kg): 0.4 ± 0.2 x 102 cells/μL
- Lymph (two weeks, 10 mg/kg): 51.4 ± 10.7 x 102 cells/μL
- MCH (two weeks, 10 mg/kg): 20.4 ± 0.6 pg
- MCHC (two weeks, 10 mg/kg): 34.6 ± 0.3 g/dL
- MCV (two weeks, 10 mg/kg): 58.9 ± 1.6 fL
- MONO (two weeks, 10 mg/kg): 0.9 ± 0.2 x 102 cells/μL
- NEUT (two weeks, 10 mg/kg): 6.4 ± 1.7 x 102 cells/μL
- PL (two weeks, 10 mg/kg): 121 ± 18 mg/dL
- RBC (two weeks, 10 mg/kg): 741 ± 19 x 104 cells/μL
- Retic (two weeks, 10 mg/kg): 190 ± 28.3 x 109 cells/L
- T-CHO (two weeks, 10 mg/kg): 68 ± 13 mg/dL
- TG (two weeks, 10 mg/kg): 24 ± 15 mg/dL
- TP (two weeks, 10 mg/kg): 6.0 ± 0.3 g/dL
- WBC (two weeks, 10 mg/kg): 59.8 ± 12.2 x 102 cells/μL
- ALB (two weeks, 30 mg/kg): 3.5 ± 0.2 g/dL
- ALP (two weeks, 30 mg/kg): 511 ± 141 IU/L
- ALT (two weeks, 30 mg/kg): 26 ± 3 IU/L
- AST (two weeks, 30 mg/kg): 64 ± 7 IU/L
- EOS (two weeks, 30 mg/kg): 0.5 ± 0.1 x 102 cells/μL
- HCT (two weeks, 30 mg/kg): 42.6 ± 1.4%
- HGB (two weeks, 30 mg/kg): 14.5 ± 0.5 g/dL
- LUC (two weeks, 30 mg/kg): 0.4 ± 0.1 x 102 cells/μL
- Lymph (two weeks, 30 mg/kg): 53.0 ± 10.3 x 102 cells/μL
- MCH (two weeks, 30 mg/kg): 20.0 ± 1.0 pg
- MCHC (two weeks, 30 mg/kg): 34.0 ± 0.5 g/dL
- MCV (two weeks, 30 mg/kg): 58.7 ± 2.6 fL
- MONO (two weeks, 30 mg/kg): 0.9 ± 0.1 x 102 cells/μL
- NEUT (two weeks, 30 mg/kg): 6.7 ± 2.1 x 102 cells/μL
- PLT (two weeks, 30 mg/kg): 122 ±15.7 x 104 cells/μL
- RBC (two weeks, 30 mg/kg): 726 ± 36 x 104 cells/μL
- Retic (two weeks, 30 mg/kg): 228 ± 37.5 x 109 cells/L
- T-CHO (two weeks, 30 mg/kg): 64 ± 5 mg/dL
- TG (two weeks, 30 mg/kg): 17 ± 6 mg/dL
- TP (two weeks, 30 mg/kg): 5.9 ± 0.2 g/dL
- WBC (two weeks, 30 mg/kg): 61.6 ± 9.2 x 102 cells/μL
- ALB (two weeks, 100 mg/kg): 3.4 ± 0.1 g/dL
- ALP (two weeks, 100 mg/kg): 566 ± 181 IU/L
- ALT (two weeks, 100 mg/kg): 29 ± 5 IU/L
- AST (two weeks, 100 mg/kg): 64 ± 5 IU/L
- EOS (two weeks, 100 mg/kg): 0.6 ± 0.2 x 102 cells/μL
- HCT (two weeks, 100 mg/kg): 42.9 ± 1.1%
- HGB (two weeks, 100 mg/kg): 14.8 ± 0.3 g/dL
- LUC (two weeks, 100 mg/kg): 0.5 ± 0.2 x 102 cells/μL
- Lymph (two weeks, 100 mg/kg): 64.6 ± 14.9 x 102 cells/μL
- MCH (two weeks, 100 mg/kg): 20.3 ± 0.2 pg
- MCHC (two weeks, 100 mg/kg): 34.4 ± 0.3 g/dL
- MCV (two weeks, 100 mg/kg): 59.0 ± 0.7 fL
- MONO (two weeks, 100 mg/kg): 1.2 ± 0.4 x 102 cells/μL
- NEUT (two weeks, 100 mg/kg): 7.8 ± 2.9 x 102 cells/μL
- PL (two weeks, 100 mg/kg): 137 ± 26 mg/dL
- Retic (two weeks, 100 mg/kg): 179 ± 45.9 x 109 cells/L
- T-CHO (two weeks, 100 mg/kg): 88 ± 20 mg/dL
- TG (two weeks, 100 mg/kg): 19 ± 10 mg/dL
- TP (two weeks, 100 mg/kg): 5.8 ± 0.2 g/dL
- WBC (two weeks, 100 mg/kg): 74.8 ± 16.8 x 102 cells/μL
